From ChEMBL document CHEMBL4422689, “Discovery of 4'-OH-flurbiprofen Mannich base derivatives as potential Alzheimer's disease treatment with multiple inhibitory activities” (Bioorg Med Chem, 2019)
Activity calls are given as the source filed them. No cut-off for these calls is given here.

Tests used:
BV-2 [1] = assay: Cytotoxicity against LPS-stimulated mouse BV2 cells assessed as effect on cell viability at 0.5 to 10 uM pretreated for 30 mins followed by LPS-stimulation and measured after 24 hrs by MTT assay; assay type: cell-based; conditions: bv-2, 24 h
[2] = biological target: Amyloid-beta precursor protein (Homo sapiens) (UniProt P05067); assay: Inhibition of HFIP-pretreated human amyloid beta (1 to 42) self-induced aggregation at 25 uM measured after 24 hrs by thioflavin-T fluorescence assay relative to control
Amyloid-beta precursor protein (Homo sapiens), sequence (P05067 whole entry): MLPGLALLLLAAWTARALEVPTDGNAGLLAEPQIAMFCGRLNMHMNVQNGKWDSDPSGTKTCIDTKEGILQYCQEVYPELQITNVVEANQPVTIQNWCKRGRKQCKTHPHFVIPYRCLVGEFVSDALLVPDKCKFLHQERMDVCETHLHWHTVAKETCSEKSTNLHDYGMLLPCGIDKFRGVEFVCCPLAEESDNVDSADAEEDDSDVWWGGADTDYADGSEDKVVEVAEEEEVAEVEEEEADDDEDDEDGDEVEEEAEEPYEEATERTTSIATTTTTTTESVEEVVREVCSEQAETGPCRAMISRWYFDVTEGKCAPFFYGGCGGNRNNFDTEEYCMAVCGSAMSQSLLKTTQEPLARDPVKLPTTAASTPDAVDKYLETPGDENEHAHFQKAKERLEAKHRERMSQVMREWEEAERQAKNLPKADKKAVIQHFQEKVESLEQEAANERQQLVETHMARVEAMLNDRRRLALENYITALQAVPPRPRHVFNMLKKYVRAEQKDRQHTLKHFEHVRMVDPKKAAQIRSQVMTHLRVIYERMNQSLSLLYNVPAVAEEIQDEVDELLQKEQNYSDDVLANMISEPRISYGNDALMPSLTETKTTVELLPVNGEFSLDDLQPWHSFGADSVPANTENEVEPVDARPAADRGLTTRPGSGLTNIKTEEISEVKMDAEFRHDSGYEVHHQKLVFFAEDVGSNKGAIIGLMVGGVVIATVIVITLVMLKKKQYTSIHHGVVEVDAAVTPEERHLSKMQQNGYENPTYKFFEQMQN

[3] = biological target: Butyrylcholinesterase (BuChE) (Rattus norvegicus, UniProt Q9JKC1); assay: (§1) Inhibition of rat serum BuChE at 25 uM using butyrylthiocholine iodide as substrate after 15 mins by Ellman's method relative to control; conditions: rat serum, probe butyrylthiocholine iodide
Butyrylcholinesterase (BuChE), sequence (Q9JKC1 whole entry): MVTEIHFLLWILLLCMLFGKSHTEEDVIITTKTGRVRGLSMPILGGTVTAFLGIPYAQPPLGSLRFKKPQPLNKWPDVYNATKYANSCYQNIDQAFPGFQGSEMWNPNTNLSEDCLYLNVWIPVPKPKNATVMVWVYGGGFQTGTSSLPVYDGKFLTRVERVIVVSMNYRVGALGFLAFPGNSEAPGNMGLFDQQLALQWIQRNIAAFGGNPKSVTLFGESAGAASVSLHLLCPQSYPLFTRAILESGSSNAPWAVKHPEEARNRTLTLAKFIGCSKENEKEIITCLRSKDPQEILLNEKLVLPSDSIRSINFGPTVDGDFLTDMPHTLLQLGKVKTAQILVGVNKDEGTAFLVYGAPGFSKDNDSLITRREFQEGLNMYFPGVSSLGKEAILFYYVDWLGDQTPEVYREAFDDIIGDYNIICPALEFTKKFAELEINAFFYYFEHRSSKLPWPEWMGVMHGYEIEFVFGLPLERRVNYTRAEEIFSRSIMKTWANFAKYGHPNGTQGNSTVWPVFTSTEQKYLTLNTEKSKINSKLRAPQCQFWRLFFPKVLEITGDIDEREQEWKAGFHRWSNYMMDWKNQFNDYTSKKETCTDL

[4] = biological target: Acetylcholinesterase (Electrophorus electricus) (UniProt O42275); assay: Inhibition of Electrophorus electricus AChE at 50 uM using acetylthiocholine iodide as substrate measured after 15 mins by Ellman's method relative to control
Acetylcholinesterase (Electrophorus electricus), sequence (O42275 24-633 limits assumed): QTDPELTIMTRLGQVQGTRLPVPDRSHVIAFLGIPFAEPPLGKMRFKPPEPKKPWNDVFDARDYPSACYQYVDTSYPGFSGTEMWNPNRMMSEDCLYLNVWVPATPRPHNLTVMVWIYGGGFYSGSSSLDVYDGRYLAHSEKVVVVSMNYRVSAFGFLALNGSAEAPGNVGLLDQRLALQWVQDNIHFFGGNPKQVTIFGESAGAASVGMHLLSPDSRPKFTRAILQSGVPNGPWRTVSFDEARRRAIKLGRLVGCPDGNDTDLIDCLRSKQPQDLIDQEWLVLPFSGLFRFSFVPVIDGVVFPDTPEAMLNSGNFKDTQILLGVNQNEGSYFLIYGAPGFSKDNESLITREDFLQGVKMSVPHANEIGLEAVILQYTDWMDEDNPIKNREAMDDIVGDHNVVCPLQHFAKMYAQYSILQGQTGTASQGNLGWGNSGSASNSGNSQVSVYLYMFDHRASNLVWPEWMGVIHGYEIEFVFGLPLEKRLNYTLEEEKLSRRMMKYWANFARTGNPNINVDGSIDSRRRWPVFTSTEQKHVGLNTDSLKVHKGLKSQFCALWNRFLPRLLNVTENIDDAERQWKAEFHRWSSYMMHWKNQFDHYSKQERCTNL

BV-2 [5] = assay: Cytotoxicity against LPS-stimulated mouse BV2 cells assessed as effect on cell viability at 2.5 to 10 uM pretreated for 30 mins followed by LPS-stimulation and measured after 24 hrs by MTT assay; assay type: cell-based; conditions: bv-2, 24 h
BV-2 [6] = assay: Cytotoxicity against mouse BV2 cells assessed as effect on cell viability up to 10 uM after 24 hrs by MTT assay; assay type: cell-based; conditions: bv-2, 24 h
BV-2 [7] = assay: Inhibition of LPS-induced nitric oxide production in mouse BV2 cells at 10 uM pretreated for 30 mins followed by LPS-stimulation and measured after 24 hrs by Griess assay relative to control; assay type: functional
[8] = Permeability of the compound in pH 7.4 PBS/EtOH at 100 ug/ml after 18 hrs by PAMPA-BBB assay
BV-2 [9] = assay: Inhibition of LPS-induced nitric oxide production in mouse BV2 cells at 2.5 uM pretreated for 30 mins followed by LPS-stimulation and measured after 24 hrs by Griess assay relative to control; assay type: functional
BV-2 [10] = assay: Inhibition of LPS-induced TNFalpha production in mouse BV2 cells at 0.5 uM pretreated for 30 mins followed by LPS-stimulation and measured after 24 hrs by ELISA relative to control; assay type: functional
BV-2 [11] = assay: Inhibition of LPS-induced TNFalpha production in mouse BV2 cells at 2.5 uM pretreated for 30 mins followed by LPS-stimulation and measured after 24 hrs by ELISA relative to control; assay type: functional
BV-2 [12] = assay: Inhibition of LPS-induced nitric oxide production in mouse BV2 cells at 0.5 uM pretreated for 30 mins followed by LPS-stimulation and measured after 24 hrs by Griess assay relative to control; assay type: functional
[13] = Inhibition of Cu2+-induced human amyloid beta (1 to 42) aggregation at 25 uM after 24 hrs by thioflavin T-based fluorometric assay relative to control
[14] = Antioxidant activity assessed as trolox equivalents of AAPH radical scavenging activity at 1 to 10 uM preincubated for 15 mins followed by AAPH addition measured every min for 90 mins by ORAC-FL assay; assay type: functional
BV-2 [15] = assay: Inhibition of LPS-induced TNFalpha production in mouse BV2 cells at 10 uM pretreated for 30 mins followed by LPS-stimulation and measured after 24 hrs by ELISA relative to control; assay type: functional
[16] = Metal chelating activity of the compound assessed as formation of Fe2+-compound complex by measuring absorbance at 37.5 uM after 30 mins by UV-vis absorption spectra analysis
[17] = Metal chelating activity of the compound assessed as formation of Cu2+-compound complex by measuring absorbance at 37.5 uM after 30 mins by UV-vis absorption spectra analysis
[18] = Metal chelating activity of the compound assessed as formation of Al3+-compound complex by measuring red shift in maximum absorption at 37.5 uM after 30 mins by UV-vis absorption spectra analysis
[19] = Metal chelating activity of the compound assessed as formation of Fe2+-compound complex by measuring red shift in maximum absorption at 37.5 uM after 30 mins by UV-vis absorption spectra analysis
[20] = Metal chelating activity of the compound assessed as formation of Zn2+-compound complex at 37.5 uM after 30 mins by UV-vis absorption spectra analysis
[21] = Metal chelating activity of the compound assessed as formation of Cu2+-compound complex by measuring red shift in maximum absorption at 37.5 uM after 30 mins by UV-vis absorption spectra analysis
Butyrylcholinesterase = Butyrylcholinesterase (Rattus norvegicus, UniProt Q9JKC1); assay: as §1; conditions: 0.25 h, 25 µM
Butyrylcholinesterase, sequence (Q9JKC1 whole entry): as the sequence (Q9JKC1 whole entry) above

Compound | inhibition [2] | inhibition at 0.25 h, 25 µM [3] | inhibition [4] | inhibition [13] | Activity [14] | other results
COC(=O)C(C)c1ccc(-c2ccc(O)c(CN(C)C)c2)c(F)c1 (stereo not drawn) | 42.7% | 2.56% | 18.6% | 38.1% | 2.07 µMequiv/µM | Activity (BV-2 [1]): Non-Toxic; Activity (BV-2 [5]): Non-Toxic; Activity (BV-2 [6]): Non-Toxic; inhibition at 10 µM (BV-2 [7]): 61.7%; Papp at 18 h, 100 ug/ml [8]: 6.78 ×10⁻⁶ cm/s; inhibition at 2.5 µM (BV-2 [9]): 39.2%; inhibition at 0.5 µM (BV-2 [10]): 21.8%; inhibition at 2.5 µM (BV-2 [11]): 51.2%; inhibition at 0.5 µM (BV-2 [12]): 21.7%; inhibition at 10 µM (BV-2 [15]): 72.9%
CCN1CCN(Cc2cc(-c3ccc(C(C)C(=O)OC)cc3F)ccc2O)CC1 (stereo not drawn) | 28.9% | 4.28% | 7.13% | 33.9% | 2.16 µMequiv/µM | –
COc1cc2c(cc1OC)C(=O)C(CC1CCN(Cc3ccccc3)CC1)C2 (stereo not drawn) | – | – | – | < 5% | – | –
CCN(CC)Cc1cc(-c2ccc(C(C)C(=O)OC)cc2F)ccc1O (stereo not drawn) | 8.3% | 1.58% | 14.3% | 29.7% | 1.81 µMequiv/µM | –
COC(=O)C(C)c1ccc(-c2ccc(O)c(CN3CCN(Cc4ccccc4)CC3)c2)c(F)c1 (stereo not drawn) | 28.4% | 2.86% | 38.3% | 39.2% | 1.19 µMequiv/µM | –
CCN(Cc1cc(-c2ccc(C(C)C(=O)OC)cc2F)ccc1O)Cc1ccccc1N(C)C (stereo not drawn) | 60.6% | 16.3% | 45.5% | 42.1% | 1.57 µMequiv/µM | –
COC(=O)C(C)c1ccc(-c2ccc(O)c(CN(C)Cc3ccccc3)c2)c(F)c1 (stereo not drawn) | 36.7% | 1.28% | 35.1% | 31.2% | 1.59 µMequiv/µM | –
CCN(Cc1cc(-c2ccc(C(C)C(=O)OC)cc2F)ccc1O)Cc1ccccc1OC (stereo not drawn) | 60.5% | 5.12% | 28% | 42.5% | 2.6 µMequiv/µM | –
CCN(Cc1ccc(N(C)C)cc1)Cc1cc(-c2ccc(C(C)C(=O)OC)cc2F)ccc1O (stereo not drawn) | 65% | 2.21% | 34.1% | 38% | 4.09 µMequiv/µM | Activity (BV-2 [1]): Non-Toxic; Activity [16]: 0.1; Activity (BV-2 [5]): Non-Toxic; Activity (BV-2 [6]): Non-Toxic; inhibition at 10 µM (BV-2 [7]): 65%; Activity [17]: 0.1; Activity [18]: 278 nm; Papp at 18 h, 100 ug/ml [8]: 8.54 ×10⁻⁶ cm/s; Activity [19]: 270 nm; inhibition at 2.5 µM (BV-2 [9]): 32.5%; Activity [20]: inactive; inhibition at 0.5 µM (BV-2 [10]): 25.3%; inhibition at 2.5 µM (BV-2 [11]): 55.3%; inhibition at 0.5 µM (BV-2 [12]): 28.3%; Activity [21]: 270 nm; inhibition at 10 µM (BV-2 [15]): 68.2%
COC(=O)C(C)c1ccc(-c2ccc(O)c(CN3CCCCC3)c2)c(F)c1 (stereo not drawn) | 15.5% | 1.95% | 22.9% | 11.2% | 1.51 µMequiv/µM | –
CCN(Cc1ccccc1)Cc1cc(-c2ccc(C(C)C(=O)OC)cc2F)ccc1O (stereo not drawn) | 36.8% | 4.61% | 36.4% | 34.9% | 2.24 µMequiv/µM | –
COc1cc(/C=C/C(=O)CC(=O)/C=C/c2ccc(O)c(OC)c2)ccc1O | – | – | – | 67.2% | – | –
COC(=O)C(C)c1ccc(-c2ccc(O)c(CN3CCOCC3)c2)c(F)c1 (stereo not drawn) | 12.9% | 1.19% | 14.9% | 22.1% | 2.14 µMequiv/µM | –
COC(=O)C(C)c1ccc(-c2ccc(O)c(CN(C)Cc3ccccc3OC)c2)c(F)c1 (stereo not drawn) | 60.6% | 3.06% | 28% | 38.8% | 2.12 µMequiv/µM | –
CC(C(=O)O)c1ccc(-c2ccccc2)c(F)c1 (stereo not drawn) [FLURBIPROFEN] | 12.8% | – | 15.6% | 7.56% | 0.18 µMequiv/µM | inhibition (INH) (Butyrylcholinesterase): Not Active; inhibition at 10 µM (BV-2 [7]): 23%; Papp at 18 h, 100 ug/ml [8]: 1.56 ×10⁻⁶ cm/s; inhibition at 2.5 µM (BV-2 [9]): 11.8%; inhibition at 2.5 µM (BV-2 [11]): 9.6%; inhibition at 10 µM (BV-2 [15]): 30.3%
COC(=O)C(C)c1ccc(-c2ccc(O)c(CN3CCN(C)CC3)c2)c(F)c1 (stereo not drawn) | 34.1% | 1.12% | 13.3% | 16.2% | 2.12 µMequiv/µM | –
COC(=O)C(C)c1ccc(-c2ccc(O)c(CN3CCCC3)c2)c(F)c1 (stereo not drawn) | 15.8% | 1.38% | 17% | 28.5% | 2.13 µMequiv/µM | –
